Assays:
T1R1/T1R3 [1] = molecular target: T1, T1R1/T1R3 (Homo sapiens (Human), UniProt Q7RTX0+Q7RTX1); test: Umami FLIPR assay, HEK-Gα15 clone I-17 inducibly expressing T1R1/T1R3; format: cell-based; details: Table 1 Umami Amides
Protocol: A dose-dependent response curve was determined for a compound, and the compound concentration corresponding to 50% of the maximal response was derived from the curve, in one example.
Regarding umami tastants and enhancers, scores of their activities can be given as percentage of the maximum MSG intensity (%). In compound dose response, an EC50 can be calculated to reflect the potency of the compound as umami agonist.
(§1) HEK-Gα15 cells were engineered to inducibly express T1R1/T1R3 using the GeneSwitch system (Invitrogen). pGene-derived zeocin-resistant expression vectors for human T1R1 and T1R3 (plasmid SXV603 for T1R1 and SXV611 for T1R3) and a puromycin-resistant pSwitch-derived vector that carries the GeneSwitch protein (plasmid SXV628) were linearized and cotransfected into the HEK-Gα15 cell line. Zeocin-resistant and puromycin-resistant colonies were selected, expanded, induced with variable amounts of mifepristone, and tested by calcium imaging for responses to umami taste stimuli. […] After replacement with 50 μl PBS, stimulation was performed at room temperature by the addition of 50 μl PBS supplemented with different stimuli. The maximal fluorescence from four independent determinations were averaged, corrected for background fluorescence measured prior to compound addition, and normalized to the response to 0.002 mM ionomycin (CALBIOCHEM).

T1R1/T1R3 [2] = molecular target: T1, T1R1/T1R3; test: Umami enhancement assay: MSG dose response with and without compound; format: cell-based; details: for Umami EC50 ratio: Table 5, compound concentration not given
Protocol: In enhancement assay experiments, a MSG dose response was run and a second MSG dose response was run with a certain amount of candidate compound at every MSG concentrations at the same time. Then, the EC50 ratio is calculated based on the following definitions: EC50 Ratio=EC50(MSG)/EC50(MSG+[Compound])
wherein “[compound]” refers to the concentration of compound used to elicit (or enhance or potentiate) the MSG dose response. Those concentrations can vary from a pM to an mM, more preferred, from a low nM to μM.
as §1

T1 sequence (Q7RTX1 21-841): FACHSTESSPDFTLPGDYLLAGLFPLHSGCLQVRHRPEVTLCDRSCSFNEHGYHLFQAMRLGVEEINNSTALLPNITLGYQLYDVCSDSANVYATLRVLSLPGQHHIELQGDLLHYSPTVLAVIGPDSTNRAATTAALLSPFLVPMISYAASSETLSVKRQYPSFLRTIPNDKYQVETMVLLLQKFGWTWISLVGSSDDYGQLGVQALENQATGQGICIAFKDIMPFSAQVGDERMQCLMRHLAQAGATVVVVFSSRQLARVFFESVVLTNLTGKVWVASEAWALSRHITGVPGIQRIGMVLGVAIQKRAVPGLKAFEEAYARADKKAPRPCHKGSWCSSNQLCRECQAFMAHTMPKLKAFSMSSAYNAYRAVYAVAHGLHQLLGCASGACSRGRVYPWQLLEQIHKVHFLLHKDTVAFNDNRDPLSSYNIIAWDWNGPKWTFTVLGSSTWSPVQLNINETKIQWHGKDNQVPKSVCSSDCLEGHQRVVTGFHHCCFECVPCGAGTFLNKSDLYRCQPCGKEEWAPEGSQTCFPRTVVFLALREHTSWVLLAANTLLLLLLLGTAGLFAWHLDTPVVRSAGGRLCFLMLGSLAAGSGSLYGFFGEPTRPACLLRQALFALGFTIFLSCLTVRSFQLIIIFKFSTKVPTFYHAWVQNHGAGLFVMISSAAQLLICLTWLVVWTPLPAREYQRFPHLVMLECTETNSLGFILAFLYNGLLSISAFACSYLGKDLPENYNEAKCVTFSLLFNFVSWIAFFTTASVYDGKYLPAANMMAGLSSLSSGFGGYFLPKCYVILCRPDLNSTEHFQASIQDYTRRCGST
T1 sequence (Q7RTX0 21-852 C757R): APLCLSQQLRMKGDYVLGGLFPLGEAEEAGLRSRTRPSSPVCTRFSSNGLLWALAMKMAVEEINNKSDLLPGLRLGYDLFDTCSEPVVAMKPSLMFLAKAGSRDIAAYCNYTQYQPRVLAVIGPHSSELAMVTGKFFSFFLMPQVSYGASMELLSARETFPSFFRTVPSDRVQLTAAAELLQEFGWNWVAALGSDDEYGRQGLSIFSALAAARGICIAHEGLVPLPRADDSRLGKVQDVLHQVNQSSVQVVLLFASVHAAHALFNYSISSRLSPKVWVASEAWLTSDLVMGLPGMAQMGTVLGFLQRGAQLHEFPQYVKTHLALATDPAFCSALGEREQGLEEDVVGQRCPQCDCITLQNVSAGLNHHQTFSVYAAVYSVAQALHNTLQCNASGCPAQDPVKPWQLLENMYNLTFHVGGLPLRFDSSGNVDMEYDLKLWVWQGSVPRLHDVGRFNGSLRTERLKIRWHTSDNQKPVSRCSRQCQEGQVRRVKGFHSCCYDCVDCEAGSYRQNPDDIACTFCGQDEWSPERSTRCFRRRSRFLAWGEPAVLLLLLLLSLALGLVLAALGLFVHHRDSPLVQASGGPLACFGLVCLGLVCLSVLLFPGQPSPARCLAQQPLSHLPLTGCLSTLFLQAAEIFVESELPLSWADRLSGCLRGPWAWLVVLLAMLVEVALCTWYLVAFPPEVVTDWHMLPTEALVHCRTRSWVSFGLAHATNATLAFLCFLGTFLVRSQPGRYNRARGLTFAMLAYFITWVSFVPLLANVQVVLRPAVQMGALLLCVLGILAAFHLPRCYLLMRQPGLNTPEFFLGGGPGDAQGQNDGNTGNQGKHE

## COC(=O)C(NC(=O)c1ccc2oc(C)nc2c1)C(C)C(C)C (centres unmarked) [Compound A28]
T1R1/T1R3 [1]
  EC50: 1690 nM

## CCCC[C@@H](NC(=O)c1ccc2c(c1)OCO2)C(=O)OC [Compound A44]
T1R1/T1R3 [1]
  EC50: 610 nM

## COc1ccc(C(=O)NC2CCc3ccccc32)cc1Cl (centres unmarked) [Compound A106]
T1R1/T1R3 [2]; Table 1, compound @ 0.3 uM
  Ec50 ratio (vs. MSG): 4.01

## COc1c(Cl)ccc(Cl)c1C(=O)Nc1ccccc1F [Compound E84, 3,6-dichloro-N-(2-fluorophenyl)-methoxybenzamide]
T1R1/T1R3 [2]
  Umami EC50 ratio: 16.51

## CCC(COC)NC(=O)c1cc2cc(Cl)ccc2o1 (centres unmarked) [Compound A11]
T1R1/T1R3 [2]; Table 1, compound @ 0.3 uM
  Ec50 ratio (vs. MSG): 6.5

## CCOc1ccc(NC(=O)c2c(Cl)ccc(Cl)c2OC)cc1 [Compound A1]
T1R1/T1R3 [2]; Table 1, compound @ 1 uM
  Ec50 ratio (vs. MSG): 2.74

## COc1cc(C(=O)NC2CCCCC2C)cc(Cl)n1 (centres unmarked) [Compound E40, 2-chloro-6-methoxy-N-(2-methylcyclohexyl)isonicotinamide]
T1R1/T1R3 [2]
  Umami EC50 ratio: 9.77

## CCC(CC)NC(=O)Nc1ccc(OC)cc1OC [Compound C13, 1-(2,4-dimethoxyphenyl)-3-(pentan-3-yl)urea]
T1R1/T1R3 [2]; Table 3, Con. 1 uM
  Ec50 ratio (vs. MSG): 11.87

## COC(=O)[C@@H](CCSC)NC(=O)c1ccc(OC)c(C)c1 [Compound A86]
T1R1/T1R3 [1]
  EC50: 530 nM

## CC1CCCCC1NC(=O)c1ccc(F)c(F)c1 (centres unmarked) [Compound E81, 3,4-difluoro-N-(2-methylcyclohexyl)benzamide]
T1R1/T1R3 [2]
  Umami EC50 ratio: 6.98

## COc1ccc(/C=C/C(=O)NC(C)CCc2ccccc2)cc1OC (centres unmarked) [Compound D16, (E)-3-(3,4-dimethoxyphenyl)-N-(4-phenylbutan-2-yl)acrylamide]
T1R1/T1R3 [2]; Table 4, compound @ 1 uM
  Ec50 ratio (vs. MSG): 3.13

## CCCC(C)NC(=O)c1ccc(OC)c(Cl)c1 (centres unmarked) [Compound A80]
T1R1/T1R3 [2]; Table 1, compound @ 0.1 uM
  Ec50 ratio (vs. MSG): 5.12

## CCC(CC)NC(=O)/C=C/c1ccc(OC)cc1 [Compound D7, (E)-3-(4-methoxyphenyl)-N-(pentan-3-yl)acrylamide]
T1R1/T1R3 [2]; Table 4, compound @ 1 uM
  Ec50 ratio (vs. MSG): 9.62

## C=Cc1ccc(C(=O)NC(CCC)CCC)cc1 [Compound A78]
T1R1/T1R3 [2]; Table 1, compound @ 0.3 uM
  Ec50 ratio (vs. MSG): 10.22

## CCCC(CCC)NC(=O)c1ccc(OC)cc1O [Compound A101]
T1R1/T1R3 [2]; Table 1, compound @ 1 uM
  Ec50 ratio (vs. MSG): 7.62

## COC(=O)c1ccc(NC(=O)c2c(Cl)ccc(Cl)c2OC)cc1 [Compound A2]
T1R1/T1R3 [2]; Table 1, compound @ 0.01 uM
  Ec50 ratio (vs. MSG): 6.98

## COc1cccc(C(=O)N[C@H]2CCCc3ccccc32)c1O [Compound A93]
T1R1/T1R3 [2]; Table 1, compound @ 1 uM
  Ec50 ratio (vs. MSG): 5.7

## CCC(NC(=O)Nc1ccc(Cl)cc1Cl)c1ccccc1 (centres unmarked) [Compound C2, 1-(2,4-dichlorophenyl)-3-(1-phenylpropyl)urea]
T1R1/T1R3 [2]; Table 3, Con. 1 uM
  Ec50 ratio (vs. MSG): 4.52

## COc1cccc(C(=O)NC2CCCc3ccccc32)c1O (centres unmarked) [Compound A87]
T1R1/T1R3 [2]; Table 1, compound @ 1 uM
  Ec50 ratio (vs. MSG): 3.8

## CC1CCCCC1NC(=O)Nc1ccccc1Cl (centres unmarked) [Compound C3, 1-(2-chlorophenyl)-3-(2-methylcyclohexyl)urea]
T1R1/T1R3 [2]; Table 3, Con. 3 uM
  Ec50 ratio (vs. MSG): 3.24

## CCOc1ccc(NC(=O)NC2CCCCC2C)cc1 (centres unmarked) [Compound C10, 1-(4-ethoxyphenyl)-3-(2-methylcyclohexyl)urea]
T1R1/T1R3 [2]; Table 3, Con. 0.3 uM
  Ec50 ratio (vs. MSG): 2.1

## CCCC(CCC)NC(=O)c1cccc(OC)c1 [Compound A84]
T1R1/T1R3 [1]
  EC50: 530 nM

## CC(CCc1ccccc1)NC(=O)c1ccc2c(c1)OCO2 (centres unmarked) [Compound A48]
T1R1/T1R3 [2]; Table 1, compound @ 1 uM
  Ec50 ratio (vs. MSG): 9.27

## O=C(NC1CCCc2ccccc21)c1cccc(Cl)c1O (centres unmarked) [Compound E7, 3-chloro-2-hydroxy-N(-1,2,3,4-tetrahydronaphthalen-1-yl)benzamide]
T1R1/T1R3 [2]
  Umami EC50 ratio: 4.04

## CCOc1ccc(NC(=O)c2cc(Cl)ccc2Cl)cc1 [Compound A3]
T1R1/T1R3 [2]; Table 1, compound @ 0.03 uM
  Ec50 ratio (vs. MSG): 6.14

## CCCC(CCC)NC(=O)c1cccc(C(C)(F)F)c1 [Compound A70]
T1R1/T1R3 [1]
  EC50: 330 nM

## COc1ccc([C@@H](C)NC(=O)c2ccc(OC)c(Cl)c2)cc1 [Compound A89]
T1R1/T1R3 [2]; Table 1, compound @ 1 uM
  Ec50 ratio (vs. MSG): 2.85

## Cc1cc(C(=O)NC2CCCc3ccccc32)ccc1O (centres unmarked) [Compound A102]
T1R1/T1R3 [2]; Table 1, compound @ 1 uM
  Ec50 ratio (vs. MSG): 9.49

## CCC(CC)NC(=O)c1cc2ccccc2o1 [Compound A21]
T1R1/T1R3 [2]; Table 1, compound @ 1 uM
  Ec50 ratio (vs. MSG): 3.74

## CCCC(CCC)NC(=O)c1cc(C)c(C)o1 [Compound A31]
T1R1/T1R3 [2]; Table 1, compound @ 1 uM
  Ec50 ratio (vs. MSG): 10.04

## CCOc1ccc(/C=C/C(=O)NC(C)CC)cc1 (centres unmarked) [Compound D13, (E)-N-sec-butyl-3-(4-ethoxyphenyl)acrylamide]
T1R1/T1R3 [2]; Table 4, compound @ 0.3 uM
  Ec50 ratio (vs. MSG): 2.7

## O=C(N[C@H]1CCCc2ccccc21)c1ccc2c(c1)OCO2 [Compound A47]
T1R1/T1R3 [2]; Table 1, compound @ 0.1 uM
  Ec50 ratio (vs. MSG): 6.42

— patent US9459250B2, “Use of T1R3 venus flytrap region polypeptide to screen for taste modulators” (SENOMYX, INC., priority 2003, dated 2016)
